Reference: US10696691B2, “BACE1 inhibitors” (Hoffmann-La Roche Inc., priority 2015, dated 2020)

What was measured:
[1] = system: Aβ40; experiment: Lowering of Aβ40 in brain of wild-type mice; type: in vivo; conditions: female C57Bl/6J mice, 30 mg/kg per os, 4 h, brain Aβ40 as percentage of the vehicle group; for response vs control in vivo at 30 mg/kg: Mus musculus, po, read-out: Aβ40 (wt mice, brain)
Experimental: Lowering of Aβ40 in Brain of Wild-Type Mice:
Animals and Housing Conditions.
Animals were maintained in a 12/12 h light/dark cycle, with lights starting at 6 a.m., and experiments were conducted during the light phase, Animal housing and experimental procedures were in line with ethical and legal guidelines and were authorized by local veterinary authorities.
Female C57Bl/6J mice were treated with a dose of 30 mg/kg of the compounds, 3-4 animals per treatment group. The test compound was dissolved in 5% EtOH, 10% Solutol, and was applied per os at 10 mL/kg. After 4 h, the animals were sacrificed and brain and plasma were collected. The brain was cut into halves and immediately frozen on dry ice. Brain was used for measurement of Aβ40 and plasma was used for determination of compound exposure. […] Brain tissue was homogenized in 2% DEA buffer in a Roche MagnaLyser (20″, 4000 rpm) and subsequently centrifuged for 1 h at 100000 g. DEA was reduced to 0.2% in 50 mM NaCl and one-half of the DEA lysate was passed over an Oasis Solid phase extraction plate (Waters; cat. no. 186000679), which had been activated with MeOH and equilibrated in dH2O (1 mL each). After washes in 10% and 30% MeOH (1 mL each), the Aβ-peptides were eluted in 0.8 mL of 2% NH4OH in 90% MeOH. The eluate was dried over a N2 flow, and the dried sample was reconstituted in 30 μL of AlphaLISA assay buffer. Aβ40 was determined by an AlphaLISA assay (Perkin-Elmer). In a white 96-well, half area microplate (Perkin-Elmer cat. no. 6005561), 20 μL of the reconstituted sample were mixed with 5 μL of biotinylated BAP-24 (specific for C-terminus of Aβ40) (Brockhaus, M.; Onmberg, J.; Rohrig, S.; Loetscher, H.; Wittenburg, N.; Baumeister, R.; Jacobsen, H.; Haass, C. Caspasemediated cleavage is not required for the activity of presenilins in amyloidogenesis and NOTCH signaling. NeuroReport 1998, 9, 1481-1486.) stock=4.4 mg/mL, f.c.5.5 μg/mL), and 5 μL 252Q6 acceptor beads (252Q6 antibody, Invitrogen AMB0062) had been previously conjugated with AlphaLISA Acceptor beads (Perkin-Elmer cat. no. 6772002); final dilution 1:500). The mix was incubated for 1 h at RT in the dark. Then 20 μL of Streptavin-coated Donor Beads (Perkin-Elmer cat. no. 6760002, final dilution 1:125) were added and this final mix was incubated in the dark for another 30 min at RT before RFU was measured in an AlphaScreen Reader (Perkin-Elmer Envision 2104). The value obtained for A40 in the treated animals was related to the value in the vehicle group and is given in %. Alternatively a commercial ELISA was used for Aβ40 determination (Wako ELISA: (“Human/Rat 3 Amyloid (40) ELISA kit Wako II”; cat nr. 294-64701) following the manufacture's instruction. Also here the Aβ-lowering efficacy was calculated as percentage of the vehicle group.

[2] = target: T1, BACE1 (Homo sapiens, UniProt P56817); experiment: Cellular Aβ-lowering assay (Abeta 40 AlphaLISA, HEK293 APP cells); type: cell-based; conditions: 18-20 hrs incubation, Aβ 40 in culture supernatants, read-out: BACE1 cell act. Aβ40 IC50
T1 construct: endogenous in cells; host or cells: HEK293 APP cells
T1 sequence (P56817 46-501): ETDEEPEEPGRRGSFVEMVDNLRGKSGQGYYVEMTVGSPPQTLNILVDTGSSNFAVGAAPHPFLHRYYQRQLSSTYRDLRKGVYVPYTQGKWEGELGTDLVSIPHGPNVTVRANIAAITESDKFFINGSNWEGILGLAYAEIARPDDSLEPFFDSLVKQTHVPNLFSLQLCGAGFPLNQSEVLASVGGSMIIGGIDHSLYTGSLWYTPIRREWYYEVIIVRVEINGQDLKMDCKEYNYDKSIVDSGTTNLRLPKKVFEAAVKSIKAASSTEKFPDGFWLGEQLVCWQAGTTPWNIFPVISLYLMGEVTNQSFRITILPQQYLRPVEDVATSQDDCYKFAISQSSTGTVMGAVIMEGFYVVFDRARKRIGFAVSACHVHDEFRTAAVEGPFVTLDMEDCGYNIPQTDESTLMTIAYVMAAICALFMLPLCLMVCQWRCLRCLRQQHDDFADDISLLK
Experimental: Cellular Aβ-Lowering Assay:
The Abeta 40 AiphaLISA Assay can be used. The HEK293 APP cells were seeded in 96 well Microtiter plates in cell culture medium (Iscove's, plus 10% (v/v) fetal bovine serum, penicillin/streptomycin) to about 80% confluency and the compounds were added at a 3× concentration in ⅓ volume of culture medium (final DMSO concentration was kept at 1% v/v). After 18-20 hrs incubation at 37° C. and 5% CO2 in a humidified incubator, the culture supernatants were harvested for the determination of Aβ 40 concentrations using Perkin-Elmer Human Amyloid beta 1-40 (high specificity) Kit (Cat # AL275C).
In a Perkin-Elmer White Optiplate-384 (Cat #6007290), 2 ul culture supernatants were combined with 2 μl of a 10× AlphaLISA Anti-hABAcceptor beads+Biotinylated Antibody Anti-AD 1-40 Mix (50 μg/mL/5 nM). After 1 hour room temperature incubation, 16 μl of a 1.25× preparation of Streptavidin (SA) Donor beads (25 μg/mL) were added and incubated for 30 minutes in the Dark. Light Emission at 615 nm was then recorded using EnVision-Alpha Reader. Levels of Aβ 40 in the culture supernatants were calculated as percentage of maximum signal (cells treated with 1% DMSO without inhibitor). The IC50 values were calculated using the Excel XLfit software.

SMILES	IC50 [2] [nM]	response vs control in vivo at 30 mg/kg [1] [%]	Aβ40 (wt mice, brain) [1] [%]
CCOc1ccc(C(=O)Nc2ccc(F)c([C@@]3(C)N=C(N)C(C)(C)[S@@]4(=O)=NCC[C@@H]34)c2)nc1 [Example 25AB, N-(3-((3aS,4R,8R)-6-amino-4,7,7-trimethyl-8-oxido-3,3a,4,7-tetrahydro-2H-isothiazolo[1,5-a][1,4]thiazin-4-yl)-4-fluorophenyl)-5-ethoxypicolinamide]	0.5	40	
COc1cnc(C(=O)Nc2ccc(F)c([C@@]3(C)N=C(N)C(C)(C)[S@@]4(=O)=NCC[C@@H]34)c2)cn1 [Example 14AB, N-(3-((3aS,4R,8R)-6-amino-4,7,7-trimethyl-8-oxido-3,3a,4,7-tetrahydro-2H-isothiazolo[1,5-a][1,4]thiazin-4-yl)-4-fluorophenyl)-5-methoxypyrazine-2-carboxamide]	0.5	3	
COc1cnc(C(=O)Nc2ccc(F)c([C@@]3(C)N=C(N)C(C)(C)[S@@]4(=O)=NCC[C@@H]34)c2)c(C)c1 [Example 26AB, N-(3-((3aS,4R,8R)-6-amino-4,7,7-trimethyl-8-oxido-3,3a,4,7-tetrahydro-2H-isothiazolo[1,5-a][1,4]thiazin-4-yl)-4-fluorophenyl)-5-methoxy-3-methylpicolinamide]	0.6	11	
CC1(C)C(N)=N[C@](C)(c2cc(NC(=O)c3cnc(OC(F)F)cn3)ccc2F)[C@@H]2CCN=[S@@]21=O [Example 15AB, N-(3-((3aS,4R,8R)-6-amino-4,7,7-trimethyl-8-oxido-3,3a,4,7-tetrahydro-2H-isothiazolo[1,5-a][1,4]thiazin-4-yl)-4-fluorophenyl)-5-(difluoromethoxy)pyrazine-2-carboxamide]	0.2	20	
CCOc1cnc(C(=O)Nc2ccc(F)c([C@@]3(C)N=C(N)C(C)(C)[S@@]4(=O)=NCC[C@@H]34)c2)cn1 [Example 27AB, N-(3-((3aS,4R,8R)-6-amino-4,7,7-trimethyl-8-oxido-3,3a,4,7-tetrahydro-2H-isothiazolo[1,5-a][1,4]thiazin-4-yl)-4-fluorophenyl)-5-ethoxypyrazine-2-carboxamide]	0.4	9	
CC1(C)C(N)=N[C@](C)(c2cc(NC(=O)c3cnc(OCC(F)(F)C(F)F)cn3)ccc2F)[C@@H]2CCN=[S@@]21=O [Example 22AB, N-(3-((3aS,4R,8R)-6-amino-4,7,7-trimethyl-8-oxido-3,3a,4,7-tetrahydro-2H-isothiazolo[1,5-a][1,4]thiazin-4-yl)-4-fluorophenyl)-5-(2,2,3,3-tetrafluoropropoxy)pyrazine-2-carboxamide]	0.2		51
CC1(C)C(N)=N[C@](C)(c2cc(NC(=O)c3cnc(OCC(F)F)cn3)ccc2F)[C@@H]2CCN=[S@@]21=O [Example 7AB, N-(3-((3aS,4R,8R)-6-amino-4,7,7-trimethyl-8-oxido-3,3a,4,7-tetrahydro-2H-isothiazolo[1,5-a][1,4]thiazin-4-yl)-4-fluorophenyl)-5-(2,2-difluoroethoxy)pyrazine-2-carboxamide]	0.4	42	

Now from value to compound, other results behind:

IC50 [2] [nM]	SMILES	response vs control in vivo at 30 mg/kg [1] [%]	Aβ40 (wt mice, brain) [1] [%]
1	CC1(C)C(N)=N[C@](C)(c2cc(NC(=O)c3ncc(Cl)cc3Cl)ccc2F)[C@@H]2CCN=[S@@]21=O [Example 3AB, N-(3-((3aS,4R,8R)-6-amino-4,7,7-trimethyl-8-oxido-3,3a,4,7-tetrahydro-2H-isothiazolo[1,5-a][1,4]thiazin-4-yl)-4-fluorophenyl)-3,5-dichloropicolinamide]	49	
13.1	CC1(C)C(N)=N[C@](C)(c2cc(NC(=O)c3ccc(C#N)cc3Cl)ccc2F)[C@@H]2CCN=[S@@]21=O [Example 4AB, N-(3-((3aS,4R,8R)-6-amino-4,7,7-trimethyl-8-oxido-3,3a,4,7-tetrahydro-2H-isothiazolo[1,5-a][1,4]thiazin-4-yl)-4-fluorophenyl)-2-chloro-4-cyanobenzamide]	102	
1	CC1(C)C(N)=N[C@](C)(c2cc(NC(=O)c3ncc(C#N)cc3Cl)ccc2F)[C@@H]2CCN=[S@@]21=O [Example 2AB, N-(3-((3aS,4R,8R)-6-amino-4,7,7-trimethyl-8-oxido-3,3a,4,7-tetrahydro-2H-isothiazolo[1,5-a][1,4]thiazin-4-yl)-4-fluorophenyl)-3-chloro-5-cyanopicolinamide]	80	
0.3	CC1(C)C(N)=N[C@](C)(c2cc(NC(=O)c3ncc(OC(F)F)cc3Cl)ccc2F)[C@@H]2CCN=[S@@]21=O [Example 13AB, N-(3-((3aS,4R,8R)-6-amino-4,7,7-trimethyl-8-oxido-3,3a,4,7-tetrahydro-2H-isothiazolo[1,5-a][1,4]thiazin-4-yl)-4-fluorophenyl)-3-chloro-5-(difluoromethoxy)picolinamide]	39	
